pIC50: −log10 of the molar value. Structures can show the parent of a compound that is named as a salt. Some results are limits rather than exact numbers.

The target of one assay is Bek (Homo sapiens, UniProt P21802). Briefly: Inhibitory activity against Bek-autophosphorylation using ELISA method in OCUM-2MD3 cells. It is filed as cell-based. The settings on record: 1 hr with compound, read-out: IC50 (concentration necessary for inhibiting 50% of Bek-phosphorylation). A digest of the protocol:
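OCUM-2MD3 human scirrhous gastric cancer cells in 0.1% FCS were exposed to compound for 1 hr at 37° C, then lysed. Phospho-tyrosine proteins were captured with anti-phosphotyrosine antibody, probed with anti-Bek antibody and peroxidase read-out (A450). Positive control (1000 nM) set 0%, untreated 100%; IC50 from multi-level dilutions.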

Assay [1] has as its system Human gastric cancer cells (OCUM-2MD3). As to the kind of experiment: Tumor growth inhibitory activity against human gastric cancer cells (OCUM-2MD3) in nude mice (Pharmacological Test Example 3). The class given is in vivo. The settings on record: Mus musculus, read-out: TGIR (tumor growth inhibition rate); for inhibition in vivo at 25 mg: 600 h, dose per day 25 mg × 1, oral; for inhibition in vivo at 10 mg: 240 h, dose per day 10 mg × 2, oral. How it is done:
(§1) Human gastric cancer cells (OCUM-2MD3) (kindly provided by Dr. Kosei Hirakawa, Osaka City University) were transplanted into nude mice. […] The test compound suspended in 0.5% methylcellulose was orally administered every day twice a day for 5 days (except for the first day on which the suspension was administered once a day).
(§2) Only 0.5% methylcellulose was administered to the control group in the manner as in the test groups. The tumor growth inhibition rate (TGIR) was calculated as follows: The tumor growth inhibition rate (TGIR)=(1−TX/CX)×100 wherein CX represents the volume of tumor at day X for the control group when the tumor volume at the day of the start of the administration was presumed to be 1; and TX represents the volume of tumor for test compound administration groups.
Tumor growth inhibitory activity was measured in the same manner as in Pharmacological Test Example 2, except that oral administration was carried out once a day or twice a day (except for the first day on which the suspension was administered once a day).

For assay [2] the test system is unchanged. As to the kind of experiment: Tumor growth inhibitory activity against human gastric cancer cells (OCUM-2MD3) in nude mice (Pharmacological Test Example 2). The class given is in vivo. The settings on record: unit dose 10 mg/kg, oral, twice a day for 5 days. The protocol: as §1, §2

Chain of Bek (P21802 431-767 limits assumed): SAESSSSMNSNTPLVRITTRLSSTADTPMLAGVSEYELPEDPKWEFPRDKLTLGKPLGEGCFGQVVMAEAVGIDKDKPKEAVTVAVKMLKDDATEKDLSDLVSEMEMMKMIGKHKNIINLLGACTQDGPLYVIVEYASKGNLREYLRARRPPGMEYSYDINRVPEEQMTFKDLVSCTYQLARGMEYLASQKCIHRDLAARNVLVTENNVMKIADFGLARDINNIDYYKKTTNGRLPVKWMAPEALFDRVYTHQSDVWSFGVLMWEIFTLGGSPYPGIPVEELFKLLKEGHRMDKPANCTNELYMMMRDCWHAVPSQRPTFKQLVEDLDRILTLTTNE

On to `COc1cc2c(Oc3ccc(NC(=O)NCCC(C)(C)C)c(F)c3)ccnc2cc1OCCN1CCCCC1` [Compound 99, 1-(3,3-Dimethyl-butyl)-3-{2-fluoro-4-[6-methoxy-7-(2-piperidin-1-yl-ethoxy)-quinolin-4-yloxy]-phenyl}-urea], for which the pIC50 on Bek was 7.54. In addition, the inhibition in vivo at 25 mg in assay [1] was 63%.
As for `COc1cc2c(Oc3ccc(NC(=O)NCCC(C)(C)C)c(F)c3)ccnc2cc1OCCN1CCOCC1` [Compound 87, 1-(3,3-Dimethyl-butyl)-3-{2-fluoro-4-[6-methoxy-7-(2-morpholin-4-yl-ethoxy)-quinolin-4-yloxy]-phenyl}-urea], the pIC50 on Bek is greater than 8.00. Also, in assay [1], the inhibition in vivo at 10 mg was found to be 33% and the inhibition in vivo at 25 mg came to 54%.
Turning to `COc1cc2c(Oc3ccc(Nc4ccc(C(C)(C)C)cc4)cc3Cl)ccnc2cc1OCCN1CCOCC1` [Compound 84, N-[4-(Tert-butyl)phenyl]-N-(3-chloro-4-{[6-methoxy-7-(2-morpholinoethoxy)-4-quinolyl]oxy}phenyl)amine], the inhibition in vivo at 10 mg in assay [1] amounted to 33%.
For the compound `COc1cc2c(Oc3ccc(NC(=O)NCCC(C)(C)C)c(F)c3)ccnc2cc1OCCCN1CCOCC1` [Compound 88, 1-(3,3-Dimethyl-butyl)-3-{2-fluoro-4-[6-methoxy-7-(3-morpholin-4-yl-propoxy)-quinolin-4-yloxy]-phenyl}-urea hydrochloride], on Bek, the pIC50 was 7.97. Moreover, the inhibition in vivo at 10 mg in assay [1] was determined as 35%.
Consider `COc1cc2c(Oc3ccc(Nc4ccc(C(C)(C)C)cc4)cc3)ccnc2cc1OCCN1CCOCC1` [Compound 37 (hydrochloride)], for which the “TGIR (tumor growth inhibition rate)” value in assay [2] is given as 35%.
With `COc1cc2c(Oc3ccc(NC(=O)NCCC(C)(C)C)c(F)c3)ccnc2cc1OCC(O)CN1CCOCC1` (centres unmarked) [Compound 89, 1-(3,3-Dimethyl-butyl)-3-{2-fluoro-4-[7-(2-hydroxy-3-morpholin-4-yl-propoxy)-6-methoxy-quinolin-4-yloxy]-phenyl}-urea hydrochloride], the pIC50 at Bek is greater than 8.00. Moreover, the inhibition in vivo at 10 mg in assay [1] worked out at 29%.
Take `COc1cc2c(Oc3ccc(NC(=O)NCCC(C)(C)C)cc3)ccnc2cc1OCCCN1CCC(CO)CC1` [Compound 94, 1-(3,3-Dimethyl-butyl)-3-(4-{7-[3-(4-hydroxymethyl-piperidin-1-yl)-propoxy]-6-methoxy-quinolin-4-yloxy}-phenyl)-urea]: the inhibition in vivo at 10 mg in assay [1] amounted to 40%.
For the compound `COc1cc2c(Oc3ccc(Nc4ccc(C(C)(C)C)cc4)cc3)ccnc2cc1OCCNCCO` [Compound 85, 2-({2-[(4-{4-[4-(Tert-butyl)anilino]phenoxy}-6-methoxy-7-quinolyl)oxy]ethyl}amino)-1-ethanol], in assay [1], the inhibition in vivo at 10 mg stood at 43%.
The same measure, in the same setting: the same measure for `COc1cc2nccc(Oc3ccc(Nc4ccc(C(C)(C)C)cc4)cc3)c2cc1OCC(O)CN1CCOCC1` (centres unmarked) [Compound 86, 1-[(4-{4-[4-(Tert-butyl)anilino]phenoxy}-7-methoxy-6-quinolyl)-oxy]-3-morpholino-2-propanol]: 30%.
`COc1cc2c(Oc3ccc(NC(=O)NCCC(C)(C)C)c(F)c3)ccnc2cc1OCCN1CC(C)OC(C)C1` (centres unmarked) [Compound 97, 1-(3,3-Dimethyl-butyl)-3-(4-{7-[2-(2,6-dimethyl-morpholin-4-yl)-ethoxy]-6-methoxy-quinolin-4-yloxy}-2-fluoro-phenyl)-urea]: the pIC50 at Bek was greater than 8.00. For the same compound, the inhibition in vivo at 25 mg in assay [1] was 48%.
The matching figures for `COc1cc2c(Oc3ccc(NC(=O)NCCC(C)(C)C)cc3F)ccnc2cc1OCCN1CCOCC1` [Compound 98, 1-(3,3-Dimethyl-butyl)-3-{3-fluoro-4-[6-methoxy-7-(2-morpholin-4-yl-ethoxy)-quinolin-4-yloxy]-phenyl}-urea]: greater than 8.00 and 48%.
The matching figures for `COc1cc2c(Oc3ccc(NC(=O)NCCC(C)(C)C)cc3)ccnc2cc1OCCN1CCCCC1` [Compound 91, 1-(3,3-Dimethyl-butyl)-3-{4-[6-methoxy-7-(2-piperidin-1-yl-ethoxy)-quinolin-4-yloxy]-phenyl}-urea hydrochloride]: 7.74 and 28%.
As for `COc1cc2c(Oc3ccc(NC(=O)NCCC(C)(C)C)c(Cl)c3)ccnc2cc1OCCN1CCOCC1` [Compound 114, 1-{2-Chloro-4-[6-methoxy-7-(2-morpholin-4-yl-ethoxy)-quinolin-4-yloxy]-phenyl}-3-(3,3-dimethyl-butyl)-urea], the pIC50 on Bek was 7.70. Further, the inhibition in vivo at 30 mg in assay [1] (720 h, dose per day 30 mg × 2, oral) was 48%.
Consider `COc1cc2c(Oc3ccc(Nc4ccc(C(C)(C)C)cc4)cc3)ccnc2cc1OCC[N+]1([O-])CCOCC1` [Compound 83, 4-{2-[(4-{4-[4-(Tert-butyl)anilino]phenoxy}-6-methoxy-7-quinolyl)-oxy]ethyl}-1,4-oxazinan-4-ium-4-oleate], for which, in assay [1], the inhibition in vivo at 10 mg stood at 34%.
For the compound `COc1cc2c(Oc3ccc(Nc4ccc(C(C)(C)C)cc4)cc3)ccnc2cc1OCC(O)CN1CCOCC1` (centres unmarked) [Compound 59 (hydrochloride)], in assay [2], the “TGIR (tumor growth inhibition rate)” value is 16%.
Take `COc1cc2nccc(Oc3ccc(NC(=O)NCCC(C)(C)C)cc3)c2cc1OCCN1CCOCC1` [Compound 90, 1-(3,3-Dimethyl-butyl)-3-{4-[7-methoxy-6-(2-morpholin-4-yl-ethoxy)-quinolin-4-yloxy]-phenyl}-urea]: the pIC50 on Bek is 7.90. The inhibition in vivo at 10 mg in assay [1] stood at 36%.
On to `COc1cc2c(Oc3ccc(NC(=O)NCCC(C)(C)C)c(Cl)c3)ccnc2cc1OCCN1CCCCC1` [Compound 100, 1-{2-Chloro-4-[6-methoxy-7-(2-piperidin-1-yl-ethoxy)-quinolin-4-yloxy]-phenyl}-3-(3,3-dimethyl-butyl)-urea], for which the pIC50 on Bek was 6.76. Also, the inhibition in vivo at 25 mg in assay [1] is 43%.
As to `COc1cc2c(Oc3ccc(Nc4ccc(C(C)(C)C)cc4)c(Cl)c3)ccnc2cc1OCCCN1CCC(CCO)CC1` [Compound 294, 2-[1-(3-{4-[4-(4-Tert-butyl-phenylamino)-3-chloro-phenoxy]-6-methoxy-quinolin-7-yloxy}-propyl)-piperidin-4-yl]-ethanol], the pIC50 at Bek is 5.96.
Regarding `COc1cc2nccc(Oc3ccc(NC(=O)NCCC(C)(C)C)c(C)c3)c2cc1OC` [Compound 136, 1-[4-(6,7-Dimethoxy-quinolin-4-yloxy)-2-methyl-phenyl]-3-(3,3-dimethyl-butyl)-urea], on Bek, the pIC50 is 7.25.
In the case of `COc1cc2nccc(Oc3ccc(NC(=O)NCCC(C)(C)C)cc3Cl)c2cc1OC` [Compound 374, 1-[3-Chloro-4-(6,7-dimethoxy-quinolin-4-yloxy)-phenyl]-3-(3,3-dimethyl-butyl)-urea], the pIC50 at Bek is 7.48.
For the compound `COc1cc2c(Oc3ccc(NC(=O)NCCC(C)(C)C)c(Cl)c3)ccnc2cc1OCCN1CCCN(C)CC1` [Compound 186, 1-(2-Chloro-4-{6-methoxy-7-[2-(4-methyl-[1,4]diazepan-1-yl)-ethoxy]-quinolin-4-yloxy}-phenyl)-3-(3,3-dimethyl-butyl)-urea], the pIC50 on Bek is 7.74.
